Read-outs that look alike come from different tables or passages of the source.
How the values were obtained:
hampsters [1] = assay: Bile lipid and bile acid contents of the bile (cholesterol-enriched diet, 80 days); format: in vivo
Protocol: (§1) The investigations were carried out on hampsters (of female sex, but excluding those in a state of pregnancy) having an initial weight of 75-90 g. They were treated for 80 days with oral administration (by gastric probe) of MG-UCD (10-20 mg/kg/day), chenodeoxycholic acid (10-20 mg/kg/day) or ursodeoxycholic acid (10-20 mg/kg/day) (Tables 4 and 5). The animals were maintained for 80 consecutive days on a Nossan feed diet for rats, enriched with cholesterol (2 mg/g of food).
(§2) Each experimental group consisted of 10 units. After 80 days, the animals were narcotised with ethyl ether, and the bile was withdrawn, together with the calculi and crystals from the gall-bladder as described by Pearlman and coll. in Gastroenterology 77, 634 (1979).
The bile acid, phospholipid, cholesterol, cholic acid, chenodeoxycholic acid, ursodeoxycholic acid, DCA (deoxycholic acid) and LCA (lithocholic acid) contents were evaluated in the bile by the methods described by Pearlman and coll. (see above).

Mus musculus = assay: Acute lethality and toxicity, oral administration (gastric probe); format: in vivo; set-up: key to Toxic symptomatology Type: NN = no symptomatology; D = depression; settings: oral
Protocol: (§3) Unless otherwise specified, the research was carried out using: a) Mg-UCD capsules as such; b) the powdered contents of Mg-UCD capsules; CDCA (chenodeoxycholic acid) and UDCA (ursodeoxycholic acid) as pure substance which in all cases was partly dissolved and partly suspended under warm conditions (T = 30°C) in 10% gum arabic mucilage (so as to administer 10-40 ml of liquid per kg orally). In certain cases, namely in the experiments involving parenteral administration, the active principle of Mg-UCD, the chenodeoxycholic acid and ursodeoxycholic acid were dissolved in distilled water of slightly alkaline pH (5-10 ml/kg).
(§4) The generally acute lethality, toxicity and tolerability were determined by oral administration of the Mg-UCD (by gastric probe) in the Mus musculus, rat and dog. Animals of both sexes were used, none of which were pregnant. They were fasted for about 12 hours before treatment (but allowing them free access to water). The investigations were carried out using the Mg-UCD in powder form. Comparative investigations were carried out on the rat and Mus musculus using the active principle by endoperitoneal administration, and chenodeoxycholic acid and ursodeoxycholic acid by oral administration (using a gastric probe). Each dose was administered to 20 rats or Mus musculus (10 male and 10 female) and to eight dogs (4 male and 4 female). The animals were observed attentively during the 7 days following administration, and any lethality, toxic symptoms, disturbances, functional variations determinable with the eye, behaviour etc. were noted.
(§5) The LD50 was determined 7 days after administration using the probit method.

rat = assay: as above; format: in vivo; set-up: key to Toxic symptomatology Type: NN = no symptomatology; D = depression; settings: oral
Protocol: as §3, §4, §5

[2] = as above; format: in vivo, Mus musculus; set-up: key to Toxic symptomatology Type: NN = no symptomatology; D = depression; settings: in vivo, po; for mortality at 24 h / mortality at 168 h: oral; for mortality at 24 h: read-out: % mortality at following times after administration 24 h; for mortality at 168 h: read-out: % mortality at following times after administration 7 days; for LD50 at 168 h: probit method, read-out: LD50 (mg/kg with reliability limits) 7 days after treatment
Protocol: as §3, §4, §5

patients = assay: Controlled study in comparison with the free acids; tolerability in patients; format: in vivo; settings: patients
hampsters [3] = assay: Action on the formation of cholesterol calculi in the gall-bladder (cholesterol-enriched diet, 80 days); format: in vivo; settings: female hampsters; for % animals with calculi / % animals with crystals: cholesterol-enriched diet
Protocol: as §1, §2

[4] = mouse, 2000 mg/kg, M. musculus F, 2000 mg/kg
[5] = mouse, 2000 mg/kg, M. musculus M, 2000 mg/kg
[6] = mouse, 4000 mg/kg, M. musculus F, 4000 mg/kg
[7] = mouse, 4000 mg/kg, M. musculus M, 4000 mg/kg
[8] = mouse, 8000 mg/kg, M. musculus F, 8000 mg/kg
[9] = mouse, 8000 mg/kg, M. musculus M, 8000 mg/kg
[10] = rat, 2000 mg/kg, Rat F, 2000 mg/kg
[11] = rat, 2000 mg/kg, Rat M, 2000 mg/kg
[12] = rat, 4000 mg/kg, Rat F, 4000 mg/kg
[13] = rat, 4000 mg/kg, Rat M, 4000 mg/kg
[14] = rat, 8000 mg/kg, Rat F, 8000 mg/kg
[15] = rat, 8000 mg/kg, Rat M, 8000 mg/kg

Compound: C[C@H](CCC(=O)O)[C@H]1CC[C@H]2[C@@H]3[C@H](O)C[C@@H]4C[C@H](O)CC[C@]4(C)[C@H]3CC[C@]12C [Chenodeoxycholic acid, 17β-(1-methyl-3-carboxypropyl)-ethiocholane-3α, 7α-diol]
- Bile acids (expressed as molar % ± s.e.) Cheno-deoxycholic acid (hampsters [1]; 10 mg/kg/day oral for 80 days): 42.1 ± 3.6 molar %
- Bile acids (expressed as molar % ± s.e.) Cholic acid (hampsters [1]; 10 mg/kg/day oral for 80 days): 29.6 ± 2.6 molar %
- Bile acids (expressed as molar % ± s.e.) DCA (hampsters [1]; 10 mg/kg/day oral for 80 days): 12.7 ± 0.6 molar %
- Bile acids (expressed as molar % ± s.e.) LCA (hampsters [1]; 10 mg/kg/day oral for 80 days): 3.2 ± 0.1 molar %
- Bile acids (expressed as molar % ± s.e.) Urso-deoxycholic acid (hampsters [1]; 10 mg/kg/day oral for 80 days): 6.6 ± 0.4 molar %
- Bile lipids (expressed as molar % ± s.e.) Bile acids (hampsters [1]; 10 mg/kg/day oral for 80 days): 79.5 ± 5.6 molar %
- Bile lipids (expressed as molar % ± s.e.) Cholesterol (hampsters [1]; 10 mg/kg/day oral for 80 days): 7.2 ± 0.2 molar %
- Bile lipids (expressed as molar % ± s.e.) Phospho-lipids (hampsters [1]; 10 mg/kg/day oral for 80 days): 16.0 ± 1.8 molar %
- Bile acids (expressed as molar % ± s.e.) Cheno-deoxycholic acid (hampsters [1]; 20 mg/kg/day oral for 80 days): 66.0 ± 4.7 molar %
- Bile acids (expressed as molar % ± s.e.) Cholic acid (hampsters [1]; 20 mg/kg/day oral for 80 days): 18.7 ± 2.1 molar %
- Bile acids (expressed as molar % ± s.e.) DCA (hampsters [1]; 20 mg/kg/day oral for 80 days): 10.4 ± 0.2 molar %
- Bile acids (expressed as molar % ± s.e.) LCA (hampsters [1]; 20 mg/kg/day oral for 80 days): 3.4 ± 0.3 molar %
- Bile acids (expressed as molar % ± s.e.) Urso-deoxycholic acid (hampsters [1]; 20 mg/kg/day oral for 80 days): 7.8 ± 0.3 molar %
- Bile lipids (expressed as molar % ± s.e.) Bile acids (hampsters [1]; 20 mg/kg/day oral for 80 days): 80.2 ± 3.8 molar %
- Bile lipids (expressed as molar % ± s.e.) Cholesterol (hampsters [1]; 20 mg/kg/day oral for 80 days): 5.9 ± 0.3 molar %
- Bile lipids (expressed as molar % ± s.e.) Phospho-lipids (hampsters [1]; 20 mg/kg/day oral for 80 days): 15.8 ± 1.3 molar %
- Toxic symptomatology Latency (Mus musculus; M. musculus F, 2000 mg/kg): 5-10 min
- Toxic symptomatology Type (Mus musculus; M. musculus F, 2000 mg/kg): D
- Toxic symptomatology Latency (Mus musculus; M. musculus F, 4000 mg/kg): 5-10 min
- Toxic symptomatology Type (Mus musculus; M. musculus F, 4000 mg/kg): D
- Toxic symptomatology Latency (Mus musculus; M. musculus F, 8000 mg/kg): 5-10 min
- Toxic symptomatology Type (Mus musculus; M. musculus F, 8000 mg/kg): D
- Toxic symptomatology Latency (Mus musculus; M. musculus M, 2000 mg/kg): 5-10 min
- Toxic symptomatology Type (Mus musculus; M. musculus M, 2000 mg/kg): D
- Toxic symptomatology Latency (Mus musculus; M. musculus M, 4000 mg/kg): 5-10 min
- Toxic symptomatology Type (Mus musculus; M. musculus M, 4000 mg/kg): D
- Toxic symptomatology Latency (Mus musculus; M. musculus M, 8000 mg/kg): 5-10 min
- Toxic symptomatology Type (Mus musculus; M. musculus M, 8000 mg/kg): D
- Toxic symptomatology Latency (rat; Rat F, 2000 mg/kg): 5-10 min
- Toxic symptomatology Type (rat; Rat F, 2000 mg/kg): D
- Toxic symptomatology Latency (rat; Rat F, 4000 mg/kg): 5-10 min
- Toxic symptomatology Type (rat; Rat F, 4000 mg/kg): D
- Toxic symptomatology Latency (rat; Rat F, 8000 mg/kg): 5-10 min
- Toxic symptomatology Type (rat; Rat F, 8000 mg/kg): D
- Toxic symptomatology Latency (rat; Rat M, 2000 mg/kg): 5-10 min
- Toxic symptomatology Type (rat; Rat M, 2000 mg/kg): D
- Toxic symptomatology Latency (rat; Rat M, 4000 mg/kg): 5-10 min
- Toxic symptomatology Type (rat; Rat M, 4000 mg/kg): D
- Toxic symptomatology Latency (rat; Rat M, 8000 mg/kg): 5-10 min
- Toxic symptomatology Type (rat; Rat M, 8000 mg/kg): D
- mortality at 24 h [2, 4]: 0%
- mortality at 168 h [2, 4]: 0%
- mortality at 24 h [2, 5]: 0%
- mortality at 168 h [2, 5]: 0%
- mortality at 24 h [2, 6]: 30%
- mortality at 168 h [2, 6]: 30%
- mortality at 24 h [2, 7]: 30%
- mortality at 168 h [2, 7]: 30%
- mortality at 24 h [2, 8]: 80%
- mortality at 168 h [2, 8]: 80%
- mortality at 24 h [2, 9]: 80%
- mortality at 168 h [2, 9]: 80%
- LD50 at 168 h ([2]; mouse, M. musculus F): 5280 mg/kg
- LD50 at 168 h ([2]; mouse, M. musculus M): 5280 mg/kg
- mortality at 24 h [2, 10]: 0%
- mortality at 168 h [2, 10]: 0%
- mortality at 24 h [2, 11]: 0%
- mortality at 168 h [2, 11]: 0%
- mortality at 24 h [2, 12]: 30%
- mortality at 168 h [2, 12]: 30%
- mortality at 24 h [2, 13]: 40%
- mortality at 168 h [2, 13]: 40%
- mortality at 24 h [2, 14]: 90%
- mortality at 168 h [2, 14]: 90%
- mortality at 24 h [2, 15]: 80%
- mortality at 168 h [2, 15]: 80%
- LD50 at 168 h ([2]; rat, Rat F): 4890 mg/kg
- LD50 at 168 h ([2]; rat, Rat M): 4010 mg/kg
- side effects (patients): diarrhoea, and, in certain cases, transaminase increase
- % animals with calculi (hampsters [3]; 10 mg/kg/day oral for 80 days): 50%
- % animals with crystals (hampsters [3]; 10 mg/kg/day oral for 80 days): 30%
- % animals with calculi (hampsters [3]; 20 mg/kg/day oral for 80 days): 0%
- % animals with crystals (hampsters [3]; 20 mg/kg/day oral for 80 days): 0%
- Body weight (g ± s.e.) after following days 80 (hampsters [3]; day 80, oral, 10 mg/kg/day): 148 ± 9 g

Source: patent publication EP0092073A1, “Magnesium salt of chenodeoxycholic acid and ursodeoxycholic acid, the process for its preparation, and therapeutic compositions which contain it as active principle” (SCHWARZ ITALIA S.p.A., priority 1982, dated 1983)
